The results in this text go back to ChEMBL document CHEMBL1128654, “4,4-Diphenyl-7-perhydrothiapyrano[3,4-c]pyrrolone, a new series of substance P receptors antagonists” (Bioorg Med Chem Lett, 1995).

Each structure is given as a SMILES string.

The target of assay [1] is Substance-P receptor (Rattus norvegicus, UniProt P14600). In words: Compound was tested for its binding affinity to NK1 receptor in [3H]SP binding assay on rat brain membranes.
For assay [2], the target named is Substance-P receptor (Homo sapiens, UniProt P25103). As to the kind of experiment: Compound was tested for its binding affinity to NK1 receptor in [3H]SP binding assay on human IM9 lymphoblasts cultured cell line.
Chain of Substance-P receptor (Homo sapiens, UniProt P25103) (P25103 whole entry): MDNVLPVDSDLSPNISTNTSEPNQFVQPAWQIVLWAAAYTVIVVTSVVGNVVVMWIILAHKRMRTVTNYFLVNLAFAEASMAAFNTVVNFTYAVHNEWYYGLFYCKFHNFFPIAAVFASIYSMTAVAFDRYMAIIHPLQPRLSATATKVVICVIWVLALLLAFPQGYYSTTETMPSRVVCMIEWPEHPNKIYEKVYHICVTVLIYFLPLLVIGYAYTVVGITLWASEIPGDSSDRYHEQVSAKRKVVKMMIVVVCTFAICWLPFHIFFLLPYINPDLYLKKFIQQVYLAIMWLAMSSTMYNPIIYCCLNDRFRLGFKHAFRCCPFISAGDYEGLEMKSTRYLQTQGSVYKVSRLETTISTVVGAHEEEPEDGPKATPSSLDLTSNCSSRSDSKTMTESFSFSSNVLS
For assay [3], the system named is Rattus norvegicus. In words: Compound was administered orally and evaluated in vivo for its inhibition of SP-induced plasma extravasation in rat. In kind it is functional. The following applies: po.
For assay [4], the system named is Rattus norvegicus. In words: Compound was administered intravenously and evaluated in vivo for its inhibition of SP-induced plasma extravasation in rat. In kind it is functional. The settings on record: iv.
Assay [5] deals with Rattus norvegicus. In words: Compound was administered perorally and evaluated in vivo for its inhibition of SP-induced plasma extravasation in rat. The settings on record: po. It is filed as functional.

Chain of Substance-P receptor (Rattus norvegicus, UniProt P14600) (P14600 whole entry): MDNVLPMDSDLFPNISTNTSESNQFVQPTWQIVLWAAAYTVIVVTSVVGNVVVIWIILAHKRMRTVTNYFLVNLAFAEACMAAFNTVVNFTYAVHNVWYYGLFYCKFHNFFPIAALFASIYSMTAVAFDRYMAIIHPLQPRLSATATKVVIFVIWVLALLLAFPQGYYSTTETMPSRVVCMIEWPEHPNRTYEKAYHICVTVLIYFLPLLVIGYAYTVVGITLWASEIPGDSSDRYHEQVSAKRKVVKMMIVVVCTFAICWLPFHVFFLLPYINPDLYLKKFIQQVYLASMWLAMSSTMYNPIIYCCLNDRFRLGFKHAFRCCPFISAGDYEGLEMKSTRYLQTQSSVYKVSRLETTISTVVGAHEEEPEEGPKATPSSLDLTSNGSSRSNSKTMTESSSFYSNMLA

Turning to `COc1ccccc1CC(=N)N1C[C@@H]2C(=O)CCC(c3ccccc3)(c3ccccc3)[C@@H]2C1`, the concentration for half-maximal inhibition (IC50) on Substance-P receptor [1] amounted to 8 nM; on Substance-P receptor [2], 49 nM.

On to `COc1ccccc1CC(=N)N1CC2C(=O)CSC(c3ccccc3)(c3ccccc3)C2C1` (stereo unspecified), for which the ED50 in the assay on Rattus norvegicus [3] was greater than 10 mg/kg; in the assay on Rattus norvegicus [4], less than 1 mg/kg. Besides, the half-maximal inhibitory concentration (IC50) at Substance-P receptor [1] came out at 2 nM; at Substance-P receptor [2], 9 nM.

`CN(C)CCCOc1ccccc1CC(=O)N1CC2C(=O)CSC(c3ccccc3)(c3ccccc3)C2C1` (stereo unspecified): the figures for the half-inhibitory concentration (IC50) at Substance-P receptor [1] and on Substance-P receptor [2] were 26 nM and 51 nM, respectively.

Regarding `COc1ccccc1[C@H](SC)C(=O)N1CC2C(=O)CSC(c3ccccc3)(c3ccccc3)C2C1` (stereo partly specified), the ED50 was 0.8 mg/kg in the assay with Rattus norvegicus [5] and 0.1 mg/kg in the assay on Rattus norvegicus [4]. In addition, the 50% inhibitory concentration (IC50) on Substance-P receptor [1] turned out to be 5 nM; on Substance-P receptor [2], 15 nM.

As for `CN(C)c1ccccc1CC(=O)N1CC2C(=O)CSC(c3ccccc3)(c3ccccc3)C2C1` (stereo unspecified), the figures for the IC50 on Substance-P receptor [1] and on Substance-P receptor [2] were 41 nM and 83 nM, respectively.

For the molecule `COc1ccccc1[C@H](C)C(=O)N1C[C@@H]2[C@H](C1)[C@@](O)(c1ccccc1OC)CSC2(c1ccccc1)c1ccccc1`, the 50% inhibitory concentration (IC50) on Substance-P receptor [1] was found to be 3000 nM; at Substance-P receptor [2], 38 nM.

Turning to `CN(C)c1ccccc1CC(=O)N1C[C@@H]2C(=O)C[S+]([O-])C(c3ccccc3)(c3ccccc3)[C@@H]2C1` (stereo partly specified), the half-maximal inhibitory concentration (IC50) on Substance-P receptor [1] is 470 nM.

As to `CN(C)c1ccccc1CC(=O)N1C[C@H]2[C@@H](C1)C(c1ccccc1)(c1ccccc1)SC[C@@H]2O`, the results for the concentration for half-maximal inhibition (IC50) on Substance-P receptor [1] and on Substance-P receptor [2] were 77 nM and 370 nM, respectively.

With `COc1ccccc1[C@H](C)C(=O)N1C[C@@H]2[C@H](C1)C(c1ccccc1)(c1ccccc1)CC[C@@]2(O)c1ccccc1OC` [DAPITANT], the 50% inhibitory concentration (IC50) at Substance-P receptor [1] was determined as 1400 nM; on Substance-P receptor [2] it was 13 nM.

As usually defined, the IC50 is the concentration that inhibits the measured activity by half. A low value points to inhibition by little substance. What is called ED50 is the dose at which the effect has come halfway, by size or by number of responders. A high value points to weaker potency.
